According to patent publication US11371055B2, “Herbicide resistance genes” (CORTEVA AGRISCIENCE LLC, priority 2005, dated 2022):

Legend:
[1] = system: Untransformed Control corn; experiment: Herbicide tolerance of untransformed control corn in the F1 stack test; format: in vivo, Zea mays; conditions: 1120 g ae/ha 2,4-D DMA
Description: AAD-12 (v1) (pDAB4101) and elite Roundup Ready inbred (BE1146RR) were reciprocally crossed and F1 seed was collected. The seed from two F1 lines were planted and treated with 70 g ae/ha imazethapyr at the V2 stage to eliminate nulls. To the surviving plants, reps were separated and either treated with 1120 g ae/ha 2,4-D DMA+70 g ae/ha imazethapyr (to confirm presence of AHAS gene) or 1120 g ae/ha 2,4-D DMA+1680 g ae/ha glyphosate (to confirm the presence of the Round Up Ready gene) in a track sprayer calibrated to 187 L/ha. Plants were graded 3 and 16 DAT.

[2] = system: T1 AAD-12 (v1) canola; experiment: 2,4-D DMA tolerance in T1 canola; format: in vivo, Brassica napus
Protocol: For T1 AAD-12 (v1), 5-6 mg of seed were stratified, sown, and a fine layer of Sunshine Mix #5 media was added as a top layer of soil. Emerging plants were selected with 560 g ae/ha 2,4-D at 7 and 13 days after planting.
Surviving plants were transplanted into 3-inch pots containing Metro Mix media. Surviving plants from T1 progenies, that were selected with 560 g ae/ha 2,4-D, were also transplanted into 3-inch pots filled with Metro Mix soil. At 2-4 leaf stage plants were sprayed with either 280, 560, 1120, or 2240 g ae/ha 2,4-D DMA. Plants were graded at 3 and 14 DAT and compared to untransformed control plants. A sampling of T1 event injury data 14DAT may be seen in Table 30.

[3] = system: Untransformed control corn (5XH751×Hi II); experiment: Brace root injury of untransformed control corn after 2,4-D DMA; format: in vivo, Zea mays; conditions: 2240 g ae/ha 2,4-D DMA, V3-V4 stage, 14DAT
Description: T1 AAD-12 (v1) seed were planted into 3-inch pots containing Metro Mix media and at 2 leaf stage were sprayed with 70 g ae/ha imazethapyr to eliminate nulls. Surviving plants were transplanted to 1-gallon pots containing Metro Mix media and placed in the same growth conditions as before. At V3-V4 stage the plants were sprayed in the track sprayer set to 187 L/ha at either 560 or 2240 g ac/ha 2,4-D DMA. Plants were graded at 3 and 14 DAT and compared to 5XH751×Hi II control plants. A grading scale of 0-10 (no injury to extreme auxin injury) was developed to distinguish brace root injury. Brace Root grades were taken on 14DAT to show 2,4-D tolerance. 2,4-D causes brace root malformation, and is a consistent indicator of auxinic herbicide injury in corn. […] Event “pDAB4101(0)001.001” was apparently unstable; however, the other two events were robustly tolerant to 2,4-D and 2,4-D+imazethapyr or 2,-4D+glyphosate (see Table 16).

[4] = system: PHL tobacco suspension co-cultivated with Agrobacterium carrying pDAB724; experiment: Tobacco cell transformation with AAD-12 (v1) and 2,4-D selection; format: cell-based
Protocol: For tobacco transformation experiment, there were 11 treatments altogether: a control set plated on LS-BY2C+dichlorprop medium, and 10 sets of LSBY2C+dichlorprop+2,4-D at varying concentration levels (1, 2, 3, 5, 8, 10, 12, 15, 18, 20 mg/L). There were four replications per treatment. The plasmid DNA vector used was pDAB724, and the vector used for transformation was EHA101S strain of Agrobacterium tumefaciens. Four ml of PHL suspension at 0.6 OD^660 were mixed with 100 ul of Agrobacterium (either EHA101 or LBA4404 strains) suspension at 1.0 OD^660 in a sterile Petri plate and were mixed thoroughly and co-cultivated together in a non-shake condition at a dark growth chamber for 3 days at 25° C. After the co-cultivation period 1.5 ml of the Agro-tobacco suspension mixture was plated to the 11 set of plates above. […] Again, there were four replicates per treatment, as well as a positive and negative control. All media contain 500 mg/L Carbenicillin (C) to control to contain Agrobacterium growth in the selection media.
The plasmid used in these experiments is pDAB724 and it has PAT selectable marker as well. So, control transformation experiments were initiated using R-dichlorprop habituated PHL in the presence of 10 mg/L bialophos following the standard protocol described above. […]

[5] = system: AAD-2 (v1) transformed T1 Arabidopsis; experiment: 2,4-D dose response of AAD-2 (v1) transformed T1 Arabidopsis; format: in vivo, Arabidopsis thaliana; conditions: 200 g ae/ha 2,4-D
Protocol: Freshly harvested T1 seed transformed with a plant optimized AAD-12 (v1) or native AAD-2 (v1) gene were planted and selected for resistance to glufosinate as previously described Plants were then randomly assigned to various rates of 2,4-D (50-3200 g ae/ha). Herbicide applications were applied by track sprayer in a 187 L/ha spray volume. 2,4-D used was the commercial dimethylamine salt formulation (456 g ae/L, NuFarm, St Joseph, Mo.) mixed in 200 mM Tris buffer (pH 9.0) or 200 mM HEPES buffer (pH7.5).

[6] = system: T1 AAD-12 (v1) tobacco; experiment: Elevated 2,4-D DMA rates in greenhouse tobacco, AAD-12; format: in vivo, Nicotiana tabacum
Description: T1 AAD-12 (v1) plants from an event segregating 3R:1S when selected with 560 g ai/ha Liberty using the same protocol as previously described. T1 AAD-1 (v3) seed was also planted for transformed tobacco controls (see PCT/US2005/014737). Untransformed KY160 was served as the sensitive control. Plants were sprayed using a track sprayer set to 187 L/ha at 140, 560, 2240, 8960, and 35840 g ae/ha 2,4-D DMA and rated 3 and 14 DAT.

## CNC.O=C(O)COc1ccc(Cl)cc1Cl [2,4-D DMA]
[1]
  Average % Injury 16DAT: 21%
[2]; T1 pDAB3759(18)009.001, 280 g ae/ha
  Average % injury 14 DAT: 0%
[2]; T1 pDAB3759(18)009.001, 560 g ae/ha
  Average % injury 14 DAT: 0%
[2]; T1 pDAB3759(18)009.001, 1120 g ae/ha
  Average % injury 14 DAT: 0%
[2]; T1 pDAB3759(18)009.001, 2240 g ae/ha
  Average % injury 14 DAT: 5%
[2]; T1 pDAB3759(18)022.001, 280 g ae/ha
  Average % injury 14 DAT: 0%
[2]; T1 pDAB3759(18)022.001, 560 g ae/ha
  Average % injury 14 DAT: 0%
[2]; T1 pDAB3759(18)022.001, 1120 g ae/ha
  Average % injury 14 DAT: 13%
[2]; T1 pDAB3759(18)022.001, 2240 g ae/ha
  Average % injury 14 DAT: 83%
[2]; T1 pDAB3759(18)023.001, 280 g ae/ha
  Average % injury 14 DAT: 0%
[2]; T1 pDAB3759(18)023.001, 560 g ae/ha
  Average % injury 14 DAT: 0%
[2]; T1 pDAB3759(18)023.001, 1120 g ae/ha
  Average % injury 14 DAT: 3%
[2]; T1 pDAB3759(18)023.001, 2240 g ae/ha
  Average % injury 14 DAT: 6%
[2]; T1 pDAB3759(18)030.001, 280 g ae/ha
  Average % injury 14 DAT: 0%
[2]; T1 pDAB3759(18)030.001, 560 g ae/ha
  Average % injury 14 DAT: 0%
[2]; T1 pDAB3759(18)030.001, 1120 g ae/ha
  Average % injury 14 DAT: 5%
[2]; T1 pDAB3759(18)030.001, 2240 g ae/ha
  Average % injury 14 DAT: 31%
[2]; T1 pDAB3759(33)013.001, 280 g ae/ha
  Average % injury 14 DAT: 0%
[2]; T1 pDAB3759(33)013.001, 560 g ae/ha
  Average % injury 14 DAT: 0%
[2]; T1 pDAB3759(33)013.001, 1120 g ae/ha
  Average % injury 14 DAT: 0%
[2]; T1 pDAB3759(33)013.001, 2240 g ae/ha
  Average % injury 14 DAT: 1%
[3]
  Average Brace Root Injury (0-10 Scale): 9

## O=C(O)COc1ccc(Cl)cc1Cl [2,4-D, 2,4-dichlorophenoxyacetic acid]
[4]; 20, 40, 60, 80, 100, and 120 mg/L 2,4-D tested
  2,4-D concentration beyond which bulked AAD-12 (v1) callus did not grow: ≤ 20 mg/L
[4]; LS-BY2C+dichlorprop medium
  sub-lethal concentration of 2,4-D (above it lethal to the non-transformed cells): 10 mg/L
[5]
  overall population injury: about 83%
[6]; 2240 g ae/ha 2,4-D
  Average % injury 14 DAT: 0%
[6]; 8960 g ae/ha 2,4-D
  Average % injury 14 DAT: 0%
[6]; 35840 g ae/ha 2,4-D
  Average % injury 14 DAT: 4%
